Assay results as given in patent US20190110981A1, “Cannabinoid Patch” (LIFE TECH GLOBAL, LLC, priority 2017, published 2019).

Legend:
[1] = In vitro transdermal flux, human cadaver skin and Franz diffusion cell; type: in vitro ADME; settings: for Flux over the course of about 20 hours: monolithic PIB patch with oil containing CBD/THC 1:1, Franz diffusion cell (FIG. 3)
From the text: FIG. 1. In vitro cumulative flux (micrograms/cm^2) of cannabidiol (CBD) through skin versus time (hours).
FIG. 2. In vitro flux of tetrahydrocannabinol (THC) from ethanol/water, at each of the indicated ratios of ethanol/water.
The disclosure provides a graph of transdermal flux (FIG. 3). […] Alternatively, the oil contains CBD/THC in a 1:1 ratio (wt./wt.).
The following concerns reservoir patches. The composition inside the reservoir can have the consistency of a paste, but in an alternative embodiment, it can have the consistency of an oil, or it can have the consistency of a liquid, or it can have the consistency of a slurry. Parameters for FIG. 2 are as follows. Flux was allowed to occur for 24 hours, and FIG. 2 provides the value at 24 hours, […] The layers are 30 cm square and the hydrogel is one cm cubed or one milliliter. The layers have microporous membrane with […] pore size. The layers have occlusive heat seal around edges. There is a protective release liner. The embodiment can be made with or without silicone adhesive.

[2] = as measured at room temperature; cited from earlier work

Compound	Effect of enhancer on transdermal delivery of CBD from PIB [1]	Flux over the course of about 20 hours ([1]; human cadaver skin)	pKa [2]	other results
CCCCCCCC/C=C\CCCCCCCC(=O)O [oleic acid]	double	–	–	–
C=C(C)[C@@H]1CCC(C)=C[C@H]1c1c(O)cc(CCCCC)cc1O [CBD, cannabidiol]	–	at least 4 micrograms per cm^2	–	Flux of CBD from matrix with hemp oil of 92% CBD relative to adhesive matrix with crystalline CBD ([1]; PIB monolithic patch, 15% CBD oil vs 15% crystalline CBD (FIG. 1)): about 5 times; Cumulative flux of CBD ([1]; over ten hours, dermal patch with PIB and about 15% CBD oil, human cadaver skin, Franz diffusion cell): at least 20 micrograms CBD per cm^2
O=S(=O)(O)CCN1CCN(CCS(=O)(=O)O)CC1 [PIPES]	–	–	6.8	–
CCCCCCCCCCCCN1CCCCCC1=O [azone, 1-dodecylazacycloheptane-2-one]	double	–	–	–
O=S(=O)(O)CCNC1CCCCC1 [CHES]	–	–	9.5	–
CCCCCc1cc(O)c2c(c1)OC(C)(C)[C@@H]1CCC(C)=C[C@@H]21 [THC, delta-9-tetrahydrocannabinol]	–	at least 1.0 micrograms per cm^2	–	THC flux by solvent in reservoir patch ([1]; THC oil mixed with ethanol and with EtOH/water of different ratios): highest flux from pure ethanol; THC flux from ethanol in reservoir patch relative to monolithic patch ([1]; reservoir patch, THC oil mixed with ethanol (FIG. 2)): 4 times; Cumulative flux of THC ([1]; reservoir patch, saturated ethanol/water about 60/40 with 25% THC oil, value at 24 hours (FIG. 2)): at least 50 micrograms THC per cm^2
